Laboratory results reported in ChEMBL document CHEMBL4359906, “Design and synthesis of new N-terminal fatty acid modified-antimicrobial peptide analogues with potent in vitro biological activity” (Eur J Med Chem, 2019).
Values after ≈ are worked out from the molar mass of the structure shown. Active and inactive are the calls of the source. No cut-off for these calls is given here.

Experiments:
Escherichia coli [1] = assay: Potentiation of rifampicin-induced antibacterial activity against Escherichia coli ATCC 25922 assessed as FICI after 18 hrs by checker board assay; format: functional
Escherichia coli [2] = assay: Induction of inner membrane permeabilization in Escherichia coli ATCC 43837 assessed as increase in ONPG release at 4 times of MIC by ONPG dye based assay; format: organism-based
Staphylococcus aureus [3] = assay: Ratio of antibacterial activity against Staphylococcus aureus ATCC 25923 in presence of KCl to antibacterial activity against Staphylococcus aureus ATCC 25923; format: functional
Escherichia coli [4] = assay: Antibiofilm activity against Escherichia coli ATCC 25922 at 2 times MIC after 24 hrs by crystal violet staining based assay; format: functional, organism-based
DNA = assay: Binding affinity to Escherichia coli ATCC 25922 genomic DNA after 30 mins by agarose gel electrophoresis; format: nucleic-acid assay
Escherichia coli [5] = assay: Induction of outer membrane permeabilization in Escherichia coli ATCC 25922 measured up to 12 mins by NPN-dye based assay; format: organism-based
[6] = Selectivity index, ratio of MHC10 for human RBC to geometric mean of peptide MIC for gram negative bacteria; format: toxicity; details: human red blood cells, read-out: Selectivity Index
Escherichia coli [7] = assay: Potentiation of polymyxin B-induced antibacterial activity against Escherichia coli ATCC 25922 assessed as FICI after 18 hrs by checker board assay; format: functional
Klebsiella pneumoniae [8] = assay: Antibacterial activity against Klebsiella pneumoniae ATCC 700603 after 18 hrs by CLSI based broth microdilution method; format: functional; details: Klebsiella pneumoniae, 700603, 18 h
Escherichia coli [9] = assay: Antimicrobial activity against Escherichia coli ATCC 25922 at 1 mM preincubated for 6 hrs in presence of 2000 ug/ml trypsin and measured after 18 hrs by microplate reader analysis; format: functional, organism-based
Erythrocyte = assay: Hemolytic activity in human RBC measured after 1 hr by microplate reader analysis; format: ADME, cell-based
Klebsiella pneumoniae [10] = assay: Potentiation of polymyxin B-induced antibacterial activity against Klebsiella pneumoniae ATCC 700603 assessed as FICI after 18 hrs by checker board assay; format: functional
Escherichia coli [11] = assay: Ratio of MIC for Escherichia coli ATCC 25922 preincubated for 6 hrs in presence of 10% mouse serum and measured after 18 hrs to MIC for antibacterial activity against Escherichia coli ATCC 25922 after 18 hrs; format: functional
Staphylococcus aureus [12] = assay: Antibacterial activity against methicillin-resistant Staphylococcus aureus 936 after 18 hrs by CLSI based broth microdilution method; format: functional; details: Staphylococcus aureus, 936, 18 h
Escherichia coli [13] = assay: Induction of membrane disruption in Escherichia coli ATCC 25922 assessed as degeneration in membrane at 4 times of MIC after 2 hrs by SEM analysis; format: functional, organism-based
Bacillus subtilis = assay: Antibacterial activity against Bacillus subtilis ATCC 23857 after 18 hrs by CLSI based broth microdilution method; format: functional; details: ATCC 23857, 18 h
[14] = Selectivity index, ratio of MHC10 for human RBC to geometric mean of peptide MIC for gram positive bacteria; format: toxicity; details: human red blood cells, read-out: Selectivity Index
Escherichia coli [15] = assay: Induction of membrane disruption in Escherichia coli ATCC 25922 assessed as corrugated membrane surface at 4 times of MIC after 2 hrs by SEM analysis; format: functional, organism-based
Escherichia coli [16] = assay: Ratio of MIC for Escherichia coli ATCC 25922 preincubated for 1 hr in presence of 10% mouse serum and measured after 18 hrs to MIC for antibacterial activity against Escherichia coli ATCC 25922 after 18 hrs; format: functional
Staphylococcus aureus [17] = assay: Antibacterial activity against Staphylococcus aureus ATCC 25923 after 18 hrs by CLSI based broth microdilution method; format: functional; details: ATCC 25923, 18 h
Pseudomonas aeruginosa [18] = assay: Potentiation of polymyxin B-induced antibacterial activity against Pseudomonas aeruginosa ATCC 27853 assessed as FICI after 18 hrs by checker board assay; format: functional
Escherichia coli [19] = assay: Induction of membrane disruption in Escherichia coli ATCC 25922 assessed as fracture in membrane at 4 times of MIC after 2 hrs by SEM analysis; format: functional, organism-based
Staphylococcus aureus [20] = assay: Ratio of antibacterial activity against Staphylococcus aureus ATCC 25923 in presence of NaCl to antibacterial activity against Staphylococcus aureus ATCC 25923; format: functional
Staphylococcus aureus [21] = assay: Ratio of antibacterial activity against Staphylococcus aureus ATCC 25923 in presence of FeCl3 to antibacterial activity against Staphylococcus aureus ATCC 25923; format: functional
Staphylococcus aureus [22] = assay: Antibiofilm activity against Staphylococcus aureus ATCC 25923 after 24 hrs by crystal violet staining based assay; format: functional, organism-based
Escherichia coli [23] = assay: Disruption of membrane integrity in Escherichia coli ATCC 25922 assessed as membrane damage by measuring PI fluorescence at 4 times of MIC incubated for 1 hr by PI dye based flow cytometric analysis (reference value: 1.35%); format: functional
Escherichia coli [24] = assay: Antibacterial activity against Escherichia coli ATCC 25922 after 18 hrs by CLSI based broth microdilution method; format: functional; details: ATCC 25922, 18 h
Escherichia coli [25] = assay: Ratio of antibacterial activity against Escherichia coli ATCC 25922 in presence of FeCl3 to antibacterial activity against Escherichia coli ATCC 25922; format: functional
Klebsiella pneumoniae [26] = assay: Potentiation of rifampicin-induced antibacterial activity against Klebsiella pneumoniae ATCC 700603 assessed as FICI after 18 hrs by checker board assay; format: functional
Escherichia coli [27] = assay: Antibacterial activity against Escherichia coli ATCC 43837 after 18 hrs by CLSI based broth microdilution method; format: functional; details: ATCC 43837, 18 h
Escherichia coli [28] = assay: Ratio of antibacterial activity against Escherichia coli ATCC 25922 in presence of NaCl to antibacterial activity against Escherichia coli ATCC 25922; format: functional
Pseudomonas aeruginosa [29] = assay: Potentiation of rifampicin-induced antibacterial activity against Pseudomonas aeruginosa ATCC 27853 assessed as FICI after 18 hrs by checker board assay; format: functional
Escherichia coli [30] = assay: Ratio of antibacterial activity against Escherichia coli ATCC 25922 in presence of MgCl2 to antibacterial activity against Escherichia coli ATCC 25922; format: functional
Escherichia coli [31] = assay: Induction of ROS generation in Escherichia coli ATCC 25922; format: functional, organism-based
Pseudomonas aeruginosa [32] = assay: Antibacterial activity against Pseudomonas aeruginosa ATCC 27853 after 18 hrs by CLSI based broth microdilution method; format: functional; details: ATCC 27853, 18 h
Escherichia coli [33] = assay: Ratio of antibacterial activity against Escherichia coli ATCC 25922 in presence of KCl to antibacterial activity against Escherichia coli ATCC 25922; format: functional
Escherichia coli [34] = assay: Induction of inner membrane permeabilization in Escherichia coli ATCC 43837 assessed as increase in ONPG release at 1 to 2 times of MIC by ONPG dye based assay; format: organism-based
Escherichia coli [35] = assay: Antibiofilm activity against Escherichia coli ATCC 25922 after 24 hrs by crystal violet staining based assay; format: functional, organism-based
Escherichia coli [36] = assay: Induction of membrane disruption in Escherichia coli ATCC 25922 assessed as rough membrane surface at 4 times of MIC after 2 hrs by SEM analysis; format: functional, organism-based
Pseudomonas aeruginosa [37] = assay: Antibiofilm activity against Pseudomonas aeruginosa ATCC 27853 after 24 hrs by crystal violet staining based assay; format: functional, organism-based
Staphylococcus aureus [38] = assay: Ratio of antibacterial activity against Staphylococcus aureus ATCC 25923 in presence of MgCl2 to antibacterial activity against Staphylococcus aureus ATCC 25923; format: functional

SMILES: CCCC(=O)NC(Cc1cn(CCCC[C@H](NC(C)=O)C(=O)NCC(=O)N[C@@H](CC(C)C)C(=O)N[C@@H](CC(C)C)C(=O)N[C@H](CCCCN)C(=O)N[C@@H](CCCNC(=N)N)C(=O)N[C@H](C(=O)N[C@H](CCCCN)C(=O)N[C@H](C(=O)N[C@@H](CC(C)C)C(=O)N[C@@H](CC(C)C)C(N)=O)[C@@H](C)O)[C@@H](C)CC)nn1)C(=O)NCC(=O)N[C@@H](CC(C)C)C(=O)N[C@@H](CC(C)C)C(=O)N[C@H](CCCCN)C(=O)N[C@@H](CCCNC(=N)N)C(=O)N[C@H](C(=O)N[C@H](CCCCN)C(=O)N[C@H](C(=O)N[C@@H](CC(C)C)C(=O)N[C@@H](CC(C)C)C(N)=O)[C@@H](C)O)[C@@H](C)CC (some centres not stated)
- fractional inhibitory concentration index (FICI) (Escherichia coli [1]): 0.3125
- Activity (Escherichia coli [2]): Active
- Ratio (Staphylococcus aureus [3]): 2 - 4
- inhibition (Escherichia coli [4]): Active
- Activity (DNA): Dose-dependent effect
- Activity (Escherichia coli [5]): Dose-dependent effect
- selectivity ratio [6]: 32
- fractional inhibitory concentration index (FICI) (Escherichia coli [7]): 0.3125
- MIC (Klebsiella pneumoniae [8]): 32 µM (≈ 85.4 µg/mL)
- Activity (Escherichia coli [9]): Active
- MHC10 (Erythrocyte): > 256 µM
- fractional inhibitory concentration index (FICI) (Klebsiella pneumoniae [10]): 0.1875
- Ratio (Escherichia coli [11]): 1
- MIC (Staphylococcus aureus [12]): 128 µM (≈ 342 µg/mL)
- Activity (Escherichia coli [13]): Active
- MIC (Bacillus subtilis): 4 µM (≈ 10.7 µg/mL)
- selectivity ratio [14]: 5.91
- Activity (Escherichia coli [15]): Active
- Ratio (Escherichia coli [16]): 1
- MIC (Staphylococcus aureus [17]): 128 µM (≈ 342 µg/mL)
- fractional inhibitory concentration index (FICI) (Pseudomonas aeruginosa [18]): 0.375
- Activity (Escherichia coli [19]): Active
- Ratio (Staphylococcus aureus [20]): 2 - 4
- Ratio (Staphylococcus aureus [21]): 2 - 4
- inhibition (Staphylococcus aureus [22]): Dose-dependent effect
- Activity (Escherichia coli [23]): 43.2%
- MIC (Escherichia coli [24]): 16 µM (≈ 42.7 µg/mL)
- Ratio (Escherichia coli [25]): 2 - 4
- fractional inhibitory concentration index (FICI) (Klebsiella pneumoniae [26]): 0.3125
- MIC (Escherichia coli [27]): 8 µM (≈ 21.3 µg/mL)
- Ratio (Escherichia coli [28]): 2 - 4
- fractional inhibitory concentration index (FICI) (Pseudomonas aeruginosa [29]): 0.375
- Ratio (Escherichia coli [30]): 2 - 4
- Activity (Escherichia coli [31]): Active
- MIC (Pseudomonas aeruginosa [32]): 8 µM (≈ 21.3 µg/mL)
- Ratio (Escherichia coli [33]): 2 - 4
- Activity (Escherichia coli [34]): Active
- inhibition (Escherichia coli [35]): Dose-dependent effect
- Activity (Escherichia coli [36]): Active
- inhibition (Pseudomonas aeruginosa [37]): Dose-dependent effect
- Ratio (Staphylococcus aureus [38]): 2 - 4

SMILES: CCCCCC(=O)NC(Cc1cn(CCCC[C@H](NC(C)=O)C(=O)NCC(=O)N[C@@H](CC(C)C)C(=O)N[C@@H](CC(C)C)C(=O)N[C@H](CCCCN)C(=O)N[C@@H](CCCNC(=N)N)C(=O)N[C@H](C(=O)N[C@H](CCCCN)C(=O)N[C@H](C(=O)N[C@@H](CC(C)C)C(=O)N[C@@H](CC(C)C)C(N)=O)[C@@H](C)O)[C@@H](C)CC)nn1)C(=O)NCC(=O)N[C@@H](CC(C)C)C(=O)N[C@@H](CC(C)C)C(=O)N[C@H](CCCCN)C(=O)N[C@@H](CCCNC(=N)N)C(=O)N[C@H](C(=O)N[C@H](CCCCN)C(=O)N[C@H](C(=O)N[C@@H](CC(C)C)C(=O)N[C@@H](CC(C)C)C(N)=O)[C@@H](C)O)[C@@H](C)CC (some centres not stated)
- fractional inhibitory concentration index (FICI) (Escherichia coli [1]): 0.5625
- Activity (Escherichia coli [2]): Active
- Ratio (Staphylococcus aureus [3]): 2 - 4
- inhibition (Escherichia coli [4]): Active
- Activity (DNA): Dose-dependent effect
- Activity (Escherichia coli [5]): Dose-dependent effect
- selectivity ratio [6]: 51.2
- fractional inhibitory concentration index (FICI) (Escherichia coli [7]): 0.375
- MIC (Klebsiella pneumoniae [8]): 16 µM (≈ 43.1 µg/mL)
- Activity (Escherichia coli [9]): Active
- MHC10 (Erythrocyte): > 256 µM
- fractional inhibitory concentration index (FICI) (Klebsiella pneumoniae [10]): 0.1875
- Ratio (Escherichia coli [11]): 2
- MIC (Staphylococcus aureus [12]): 64 µM (≈ 173 µg/mL)
- Activity (Escherichia coli [13]): Active
- MIC (Bacillus subtilis): 4 µM (≈ 10.8 µg/mL)
- selectivity ratio [14]: 11.6
- Activity (Escherichia coli [15]): Active
- Ratio (Escherichia coli [16]): 1
- MIC (Staphylococcus aureus [17]): 64 µM (≈ 173 µg/mL)
- fractional inhibitory concentration index (FICI) (Pseudomonas aeruginosa [18]): 0.3125
- Activity (Escherichia coli [19]): Active
- Ratio (Staphylococcus aureus [20]): 2 - 4
- Ratio (Staphylococcus aureus [21]): 2 - 4
- inhibition (Staphylococcus aureus [22]): Dose-dependent effect
- Activity (Escherichia coli [23]): 38.5%
- MIC (Escherichia coli [24]): 8 µM (≈ 21.6 µg/mL)
- Ratio (Escherichia coli [25]): 2 - 4
- fractional inhibitory concentration index (FICI) (Klebsiella pneumoniae [26]): 0.5625
- MIC (Escherichia coli [27]): 8 µM (≈ 21.6 µg/mL)
- Ratio (Escherichia coli [28]): 2 - 4
- fractional inhibitory concentration index (FICI) (Pseudomonas aeruginosa [29]): 0.5
- Ratio (Escherichia coli [30]): 2 - 4
- Activity (Escherichia coli [31]): inactive
- MIC (Pseudomonas aeruginosa [32]): 8 µM (≈ 21.6 µg/mL)
- Ratio (Escherichia coli [33]): 2 - 4
- Activity (Escherichia coli [34]): Active
- inhibition (Escherichia coli [35]): Dose-dependent effect
- Activity (Escherichia coli [36]): Active
- inhibition (Pseudomonas aeruginosa [37]): Dose-dependent effect
- Ratio (Staphylococcus aureus [38]): 2 - 4
